Measurements from publication PMC6211316, “Synthesis and biological evaluation of 3-arylcoumarin derivatives as potential anti-diabetic agents” (Journal of Enzyme Inhibition and Medicinal Chemistry, 2018).

How the values were obtained:
[1] = tested on: STZ-induced diabetic mice; assay: Daily treatment for 16 days in STZ-induced diabetic mice; assay type: in vivo; conditions: for bw loss in hyperglycemic mice: 30 mg/kg of bw daily per os; for long-term anti-hyperglycemic effect (blood glucose levels): 30 mg/kg of bw oral, once a day, for 16 days
Protocol: Thereafter, the target compounds 11, 17, 35, and glibenclamide were administered once (9 a.m.) on a daily basis, for a period of 16 days, to STZ-induced diabetic mice which were divided into five groups (A-E). A six group of normal mice (Group F) was used as a control. Groups E (diabetic control) and F received vehicle (0.05% Tween-80 in saline solution) per os for 16 days. Group A received glibenclamide (10 mg/kg of bw daily). Groups B–D received different treatments: B, compound 11 (30 mg/kg of bw daily); C, compound 17 (30 mg/kg of bw daily); D, compound 35 (30 mg/kg of bw daily). All tested materials were suspended in the same vehicle and administered per os daily for 16 days. The animals were housed under standard laboratory conditions and maintained with free access to water and food during all the experiment. Blood glucose concentration on animals of diabetic (Groups A–E) and control group (Group F) was estimated at days 1, 4, 7, 10, 13, and 16. The bw of the animals were measured concomitantly to the blood glucose analyses. All experiments were carried out using six animals per group.

[2] = tested on: normal mice; assay: Acute hypoglycemic assay in normal mice; assay type: in vivo
Protocol: STZ-induced diabetic mice and normal mice were placed in single cages with wire-net floors and deprived of food for 12 h before experimentation but allowed free access to tap water throughout. The compounds (at the doses of 10, 30, and 100 mg/kg of bw) were suspended in 0.05% Tween-80 in saline solution. Glibenclamide (10 mg/kg of bw) was suspended in the same vehicle. The target compounds were freshly prepared immediately before experimentation and administered by the intragastrical route at the doses of 10 ml/kg of bw. Control mice received only the vehicle (0.05% Tween-80 in saline solution) by the same route. Blood glucose levels were measured at 0, 1.5, 3, 5, 7, and 9 h after drugs administration.

[3] = hydroxyl radical scavenging; conditions: mean ± SD (n = 3), read-out: OH IC50 Value
How it was run: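 Fenton system of H2O2 (0.03%), FeSO4 (2 mmol/L) and salicylic acid (10 mmol/L) with compound solutions (0.4–2.0 mg/mL), incubated 30 min at 37 °C. Absorbance read at 510 nm. % OH scavenging = [A0−(A1−A2)]/A0×100, with A2 a sample blank using ethanol in place of salicylic acid.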

[4] = Oral toxicity to mice (Lorke's method); conditions: both sexes, mouse, in vivo, Kunming mice, observed 14 days
Protocol: With reference to Lorke’s method, kunming mice were used as targets to estimate the oral toxicity of each compound to mice. We select compounds 11, 17, 25, 28, and 35 at concentrations of 10, 100, and 1000 mg/kg to test their oral toxicity in the first phase, and 1600, 2900, and 5000 mg/kg at the second phase.
Experiments were performed on Kunming mice (male and female half, bw range, 25–30 g). Mice were housed in a climate and light controlled room with a 12 h light/dark cycle. Twelve hours before experiments, food was withheld, but animals had free access to drinking water. The compounds were suspended in vehicle (Tween-80, 0.2% in saline). The concentrations were adjusted to orally administrate 0.2 ml/10 g of bw. Mice were treated in two phases. In the first, intragastric doses of 10, 100 and 1000 mg/kg of bw of compounds were administered. On the second, the doses were adjusted to 1600, 2900, and 5000 mg/kg of bw of compounds. In both phases, mice were observed daily in a period of 14 days for mortality, toxic effects and/or changes in behavioural pattern. At the end of the experiments, the mice were sacrificed in a CO2 chamber.

Row | SMILES | bw loss in hyperglycemic mice ([1]; 16 days) | long-term anti-hyperglycemic effect (blood glucose levels) [1] | Blood glucose concentration ([2]; 10 mg/kg of bw per os, 0h) [mM] | % Variation of glycemia ([2]; 10 mg/kg of bw per os, 1.5h) | Blood glucose concentration ([2]; 10 mg/kg of bw per os, 1.5h) [mM] | % Variation of glycemia ([2]; 10 mg/kg of bw per os, 3h) | Blood glucose concentration ([2]; 10 mg/kg of bw per os, 3h) [mM] | % Variation of glycemia ([2]; 10 mg/kg of bw per os, 5h) | Blood glucose concentration ([2]; 10 mg/kg of bw per os, 5h) [mM] | % Variation of glycemia ([2]; 10 mg/kg of bw per os, 7h) | Blood glucose concentration ([2]; 10 mg/kg of bw per os, 7h) [mM] | % Variation of glycemia ([2]; 10 mg/kg of bw per os, 9h) | Blood glucose concentration ([2]; 10 mg/kg of bw per os, 9h) [mM] | Blood glucose concentration ([2]; 30 mg/kg of bw per os, 0h) [mM] | % Variation of glycemia ([2]; 30 mg/kg of bw per os, 1.5h) | Blood glucose concentration ([2]; 30 mg/kg of bw per os, 1.5h) [mM] | % Variation of glycemia ([2]; 30 mg/kg of bw per os, 3h) | Blood glucose concentration ([2]; 30 mg/kg of bw per os, 3h) [mM] | IC50 [3] [µM] | LD50 at 14 days [4] [mg/kg] | also measured
1 | O=c1oc2ccc(O)cc2cc1-c1ccc(O)cc1 [Compound 17, 6-Hydroxy-3-(4-hydroxyphenyl)-coumarin] | prevented bw loss | induced obviously anti-hyperglycemic effect | 10.6 ± 0.4 | (−23.96) % | 7.9 ± 0.7 | (−34.19) % | 6.9 ± 0.8 | (−45.37) % | 5.7 ± 0.7 | (−48.56) % | 5.4 ± 0.5 | (−51.12) % | 5.1 ± 0.4 | 10.8 ± 0.3 | (−18.39) % | 8.4 ± 1.0 | (−33.55) % | 6.9 ± 0.9 | > 1000 | > 5000 | % Variation of glycemia ([2]; 30 mg/kg of bw per os, 5h): (−48.71) %; Blood glucose concentration ([2]; 30 mg/kg of bw per os, 5h): 5.3 ± 0.7 mM; % Variation of glycemia ([2]; 30 mg/kg of bw per os, 7h): (−48.71) %; Blood glucose concentration ([2]; 30 mg/kg of bw per os, 7h): 5.3 ± 1.1 mM; % Variation of glycemia ([2]; 30 mg/kg of bw per os, 9h): (−56.45) %; Blood glucose concentration ([2]; 30 mg/kg of bw per os, 9h): 4.5 ± 0.6 mM; Blood glucose concentration ([2]; 100 mg/kg of bw per os, 0h): 10.4 ± 0.2 mM; % Variation of glycemia ([2]; 100 mg/kg of bw per os, 1.5h): (−25.90) %; Blood glucose concentration ([2]; 100 mg/kg of bw per os, 1.5h): 7.5 ± 1.2 mM; % Variation of glycemia ([2]; 100 mg/kg of bw per os, 3h): (−37.71) %; Blood glucose concentration ([2]; 100 mg/kg of bw per os, 3h): 6.3 ± 0.9 mM; % Variation of glycemia ([2]; 100 mg/kg of bw per os, 5h): (−49.18) %; Blood glucose concentration ([2]; 100 mg/kg of bw per os, 5h): 5.2 ± 0.5 mM; % Variation of glycemia ([2]; 100 mg/kg of bw per os, 7h): (−53.44) %; Blood glucose concentration ([2]; 100 mg/kg of bw per os, 7h): 4.7 ± 0.4 mM; % Variation of glycemia ([2]; 100 mg/kg of bw per os, 9h): (−58.03) %; Blood glucose concentration ([2]; 100 mg/kg of bw per os, 9h): 4.3 ± 0.4 mM
2 | COc1ccc(-c2cc3c(O)cc(O)cc3oc2=O)cc1 [Compound 35, 5,7-Dihydroxy-3-(4-methoxyphenyl)-coumarin] | prevented bw loss | induced obviously anti-hyperglycemic effect | 10.8 ± 0.6 | (−14.55) % | 9.2 ± 0.6 | (−24.15) % | 8.2 ± 0.5 | (−25.70) % | 8.0 ± 0.4 | (−31.27) % | 7.4 ± 0.5 | (−34.06) % | 7.1 ± 0.3 | 10.5 ± 0.9 | (−17.72) % | 8.7 ± 1.0 | (−31.65) % | 7.2 ± 0.8 | 270 ± 41.6 | > 5000 | blood glucose levels at the end of the experiment ([1]; 30 mg/kg of bw daily, 16 days): restored blood glucose levels to near normal values; % Variation of glycemia ([2]; 30 mg/kg of bw per os, 5h): (−39.24) %; Blood glucose concentration ([2]; 30 mg/kg of bw per os, 5h): 6.4 ± 1.0 mM; % Variation of glycemia ([2]; 30 mg/kg of bw per os, 7h): (−44.94) %; Blood glucose concentration ([2]; 30 mg/kg of bw per os, 7h): 5.8 ± 0.7 mM; % Variation of glycemia ([2]; 30 mg/kg of bw per os, 9h): (−44.30) %; Blood glucose concentration ([2]; 30 mg/kg of bw per os, 9h): 5.9 ± 0.6 mM; Blood glucose concentration ([2]; 100 mg/kg of bw per os, 0h): 10.6 ± 0.4 mM; % Variation of glycemia ([2]; 100 mg/kg of bw per os, 1.5h): (−18.18) %; Blood glucose concentration ([2]; 100 mg/kg of bw per os, 1.5h): 8.7 ± 0.5 mM; % Variation of glycemia ([2]; 100 mg/kg of bw per os, 3h): (−40.44) %; Blood glucose concentration ([2]; 100 mg/kg of bw per os, 3h): 6.3 ± 1.0 mM; % Variation of glycemia ([2]; 100 mg/kg of bw per os, 5h): (−49.22) %; Blood glucose concentration ([2]; 100 mg/kg of bw per os, 5h): 5.4 ± 0.6 mM; % Variation of glycemia ([2]; 100 mg/kg of bw per os, 7h): (−55.17) %; Blood glucose concentration ([2]; 100 mg/kg of bw per os, 7h): 4.8 ± 0.6 mM; % Variation of glycemia ([2]; 100 mg/kg of bw per os, 9h): (−57.05) %; Blood glucose concentration ([2]; 100 mg/kg of bw per os, 9h): 4.6 ± 0.7 mM
3 | Cc1ccc(-c2cc3c(O)cc(O)cc3oc2=O)cc1 [Compound 25, 5,7-Dihydroxy-3-(4-methylphenyl)-coumarin] | – | – | – | – | – | – | – | – | – | – | – | – | – | – | – | – | – | – | > 1000 | > 5000 | –
4 | Cc1ccccc1-c1cc2ccc(O)cc2oc1=O [Compound 11, 7-Hydroxy-3-(2-methylphenyl)-coumarin] | prevented bw loss | less efficient in decreasing blood glucose levels | 10.0 ± 0.7 | (−15.27) % | 9.1 ± 0.2 | (−28.35) % | 7.7 ± 0.6 | (−38.01) % | 6.6 ± 0.5 | (−47.98) % | 5.6 ± 0.4 | (−48.91) % | 5.5 ± 1.2 | 10.2 ± 1.2 | (−13.62) % | 8.7 ± 1.2 | (−30.90) % | 6.9 ± 1.1 | > 1000 | > 5000 | % Variation of glycemia ([2]; 30 mg/kg of bw per os, 5h): (−40.86) %; Blood glucose concentration ([2]; 30 mg/kg of bw per os, 5h): 5.9 ± 1.1 mM; % Variation of glycemia ([2]; 30 mg/kg of bw per os, 7h): (−47.84) %; Blood glucose concentration ([2]; 30 mg/kg of bw per os, 7h): 5.2 ± 0.8 mM; % Variation of glycemia ([2]; 30 mg/kg of bw per os, 9h): (−49.17) %; Blood glucose concentration ([2]; 30 mg/kg of bw per os, 9h): 5.1 ± 0.6 mM; Blood glucose concentration ([2]; 100 mg/kg of bw per os, 0h): 10.4 ± 0.7 mM; % Variation of glycemia ([2]; 100 mg/kg of bw per os, 1.5h): (−31.37) %; Blood glucose concentration ([2]; 100 mg/kg of bw per os, 1.5h): 7.0 ± 1.1 mM; % Variation of glycemia ([2]; 100 mg/kg of bw per os, 3h): (−42.16) %; Blood glucose concentration ([2]; 100 mg/kg of bw per os, 3h): 5.9 ± 0.6 mM; % Variation of glycemia ([2]; 100 mg/kg of bw per os, 5h): (−52.94) %; Blood glucose concentration ([2]; 100 mg/kg of bw per os, 5h): 4.8 ± 1.3 mM; % Variation of glycemia ([2]; 100 mg/kg of bw per os, 7h): (−54.25) %; Blood glucose concentration ([2]; 100 mg/kg of bw per os, 7h): 4.7 ± 0.4 mM; % Variation of glycemia ([2]; 100 mg/kg of bw per os, 9h): (−58.17) %; Blood glucose concentration ([2]; 100 mg/kg of bw per os, 9h): 4.3 ± 0.3 mM
